Laboratory results published in the NIST ThermoML archive (doi:10.1016/j.jct.2006.01.008).
± gives the expanded uncertainty stated by the source.

Experiment: mn = molality of the nth substance listed, in mol/kg
Settings: Liquid

## O=[N+]([O-])[O-].[Li+] [lithium nitrate] + CO
348.25 K, 312 kPa, m1 = 3.614
  mass density: 887.13 ± 0.16 kg/m3
348.25 K, 318 kPa, m1 = 1.803
  mass density: 819.91 ± 0.22 kg/m3
348.25 K, 325 kPa, m1 = 0.5393
  mass density: 764.85 ± 0.26 kg/m3
348.25 K, 4991 kPa, m1 = 0.5393
  mass density: 770.52 ± 0.34 kg/m3
348.25 K, 5006 kPa, m1 = 3.614
  mass density: 891.37 ± 0.2 kg/m3
348.25 K, 5009 kPa, m1 = 1.803
  mass density: 824.85 ± 0.27 kg/m3
348.25 K, 9982 kPa, m1 = 3.614
  mass density: 895.64 ± 0.23 kg/m3
348.25 K, 10005 kPa, m1 = 1.803
  mass density: 829.8 ± 0.33 kg/m3
348.25 K, 10014 kPa, m1 = 0.5393
  mass density: 776.21 ± 0.42 kg/m3
348.25 K, 14983 kPa, m1 = 1.803
  mass density: 834.47 ± 0.39 kg/m3
348.25 K, 14987 kPa, m1 = 0.5393
  mass density: 781.48 ± 0.49 kg/m3
348.25 K, 15007 kPa, m1 = 3.614
  mass density: 899.77 ± 0.26 kg/m3
348.25 K, 19991 kPa, m1 = 1.803
  mass density: 838.93 ± 0.44 kg/m3
348.25 K, 19995 kPa, m1 = 3.614
  mass density: 903.68 ± 0.29 kg/m3
348.25 K, 20004 kPa, m1 = 0.5393
  mass density: 786.51 ± 0.56 kg/m3
348.25 K, 24984 kPa, m1 = 1.803
  mass density: 843.17 ± 0.49 kg/m3
348.25 K, 24990 kPa, m1 = 3.614
  mass density: 907.45 ± 0.32 kg/m3
348.25 K, 25002 kPa, m1 = 0.5393
  mass density: 791.23 ± 0.63 kg/m3
348.25 K, 29989 kPa, m1 = 0.5393
  mass density: 795.72 ± 0.7 kg/m3
348.25 K, 29996 kPa, m1 = 3.614
  mass density: 911.08 ± 0.35 kg/m3
348.25 K, 30007 kPa, m1 = 1.803
  mass density: 847.26 ± 0.54 kg/m3
348.25 K, 34987 kPa, m1 = 0.5393
  mass density: 800.01 ± 0.77 kg/m3
348.25 K, 34994 kPa, m1 = 3.614
  mass density: 914.59 ± 0.37 kg/m3
348.25 K, 34996 kPa, m1 = 1.803
  mass density: 851.13 ± 0.59 kg/m3
348.25 K, 39988 kPa, m1 = 0.5393
  mass density: 804.12 ± 0.83 kg/m3
348.25 K, 39995 kPa, m1 = 1.803
  mass density: 854.88 ± 0.63 kg/m3
348.25 K, 40008 kPa, m1 = 3.614
  mass density: 917.97 ± 0.39 kg/m3
373.15 K, 572 kPa, m1 = 0.1551
  mass density: 719.83 ± 0.31 kg/m3
373.15 K, 578 kPa, m1 = 0.8904
  mass density: 757.09 ± 0.27 kg/m3
373.15 K, 627 kPa, m1 = 0.2943
  mass density: 727.47 ± 0.3 kg/m3
373.15 K, 4896 kPa, m1 = 0.1551
  mass density: 726.23 ± 0.39 kg/m3
373.15 K, 4896 kPa, m1 = 0.8904
  mass density: 762.68 ± 0.35 kg/m3
373.15 K, 5038 kPa, m1 = 0.2943
  mass density: 733.83 ± 0.38 kg/m3
373.15 K, 10365 kPa, m1 = 0.2943
  mass density: 741.1 ± 0.48 kg/m3
373.15 K, 10738 kPa, m1 = 0.1551
  mass density: 734.38 ± 0.5 kg/m3
373.15 K, 10738 kPa, m1 = 0.8904
  mass density: 769.86 ± 0.44 kg/m3
373.15 K, 15238 kPa, m1 = 0.1551
  mass density: 740.28 ± 0.58 kg/m3
373.15 K, 15238 kPa, m1 = 0.8904
  mass density: 775.11 ± 0.51 kg/m3
373.15 K, 15875 kPa, m1 = 0.2943
  mass density: 748.15 ± 0.57 kg/m3
373.15 K, 20369 kPa, m1 = 0.2943
  mass density: 753.53 ± 0.65 kg/m3
373.15 K, 21035 kPa, m1 = 0.1551
  mass density: 747.38 ± 0.68 kg/m3
373.15 K, 21035 kPa, m1 = 0.8904
  mass density: 781.49 ± 0.59 kg/m3
373.15 K, 25124 kPa, m1 = 0.1551
  mass density: 752.05 ± 0.74 kg/m3
373.15 K, 25124 kPa, m1 = 0.8904
  mass density: 785.73 ± 0.65 kg/m3
373.15 K, 25852 kPa, m1 = 0.2943
  mass density: 759.66 ± 0.74 kg/m3
373.15 K, 30147 kPa, m1 = 0.2943
  mass density: 764.13 ± 0.8 kg/m3
373.15 K, 30418 kPa, m1 = 0.1551
  mass density: 757.68 ± 0.83 kg/m3
373.15 K, 30418 kPa, m1 = 0.8904
  mass density: 790.91 ± 0.72 kg/m3
373.15 K, 35753 kPa, m1 = 0.2943
  mass density: 769.52 ± 0.89 kg/m3
373.15 K, 35984 kPa, m1 = 0.1551
  mass density: 763.11 ± 0.92 kg/m3
373.15 K, 35984 kPa, m1 = 0.8904
  mass density: 795.98 ± 0.8 kg/m3
373.15 K, 39901 kPa, m1 = 0.1551
  mass density: 766.61 ± 0.97 kg/m3
373.15 K, 39901 kPa, m1 = 0.8904
  mass density: 799.31 ± 0.85 kg/m3
373.15 K, 39951 kPa, m1 = 0.2943
  mass density: 773.22 ± 0.95 kg/m3
373.27 K, 528 kPa, m1 = 3.614
  mass density: 865.29 ± 0.19 kg/m3
373.27 K, 532 kPa, m1 = 1.803
  mass density: 796.7 ± 0.24 kg/m3
373.27 K, 4988 kPa, m1 = 1.803
  mass density: 802.12 ± 0.3 kg/m3
373.27 K, 5015 kPa, m1 = 3.614
  mass density: 869.9 ± 0.23 kg/m3
373.27 K, 9996 kPa, m1 = 1.803
  mass density: 807.82 ± 0.37 kg/m3
373.27 K, 10010 kPa, m1 = 3.614
  mass density: 874.76 ± 0.27 kg/m3
373.27 K, 14985 kPa, m1 = 1.803
  mass density: 813.14 ± 0.43 kg/m3
373.27 K, 14994 kPa, m1 = 3.614
  mass density: 879.35 ± 0.31 kg/m3
373.27 K, 19990 kPa, m1 = 1.803
  mass density: 818.17 ± 0.49 kg/m3
373.27 K, 19991 kPa, m1 = 3.614
  mass density: 883.74 ± 0.34 kg/m3
373.27 K, 24989 kPa, m1 = 1.803
  mass density: 822.92 ± 0.55 kg/m3
373.27 K, 24995 kPa, m1 = 3.614
  mass density: 887.93 ± 0.38 kg/m3
373.27 K, 29999 kPa, m1 = 3.614
  mass density: 891.95 ± 0.41 kg/m3
